Measurements reported in ChEMBL document CHEMBL1130984, “Substrate specificity of human prolyl-4-hydroxylase” (Bioorg Med Chem Lett, 1998).

Assays:
[1] = target: T1, Transmembrane prolyl 4-hydroxylase (Homo sapiens, UniProt Q9NXG6); test: Compound was tested for inhibition of the enzyme human proline-4-hydroxylase; No inhibition
T1 sequence (Q9NXG6 whole entry): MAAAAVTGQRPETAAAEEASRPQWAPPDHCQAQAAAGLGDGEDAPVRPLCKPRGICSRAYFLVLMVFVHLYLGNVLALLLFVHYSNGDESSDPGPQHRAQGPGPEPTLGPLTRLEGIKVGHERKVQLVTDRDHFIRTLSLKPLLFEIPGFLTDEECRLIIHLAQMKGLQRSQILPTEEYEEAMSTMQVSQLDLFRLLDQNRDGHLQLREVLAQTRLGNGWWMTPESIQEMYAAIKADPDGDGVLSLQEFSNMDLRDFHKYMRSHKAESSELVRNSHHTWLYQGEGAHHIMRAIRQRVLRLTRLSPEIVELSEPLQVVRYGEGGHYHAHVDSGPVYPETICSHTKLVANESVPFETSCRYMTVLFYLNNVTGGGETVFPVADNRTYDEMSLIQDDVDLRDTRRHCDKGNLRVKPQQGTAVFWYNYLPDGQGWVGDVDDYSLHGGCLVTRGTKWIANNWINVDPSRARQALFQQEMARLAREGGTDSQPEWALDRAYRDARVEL

[2] = target: T2, Transmembrane prolyl 4-hydroxylase (Homo sapiens) (UniProt Q9NXG6); test: Compound was tested for substrate specificity of human proline-4-hydroxylase; Not a substrate
T2 sequence (whole entry): T1 sequence (Q9NXG6 whole entry)

[3] = target: T2, Transmembrane prolyl 4-hydroxylase (Homo sapiens); test: Compound was tested for substrate specificity of human proline-4-hydroxylase; Substrate

IC50 [1]	Activity [2]	Activity [3]	Compound
Not Active	Not a substrate		CCOC(=O)CNC(=O)[C@@H]1C(Br)CCN1C(=O)[C@H](Cc1ccccc1)NC(=O)CNC(=O)OCc1ccccc1 (stereo partly specified)
Not Active	Not a substrate		CCOC(=O)CNC(=O)[C@@H]1C(Cl)CCN1C(=O)[C@H](Cc1ccccc1)NC(=O)CNC(=O)OCc1ccccc1 (stereo partly specified)
Not Active	Not a substrate		CCOC(=O)CNC(=O)[C@@H]1C(C)CCN1C(=O)[C@H](Cc1ccccc1)NC(=O)CNC(=O)OCc1ccccc1 (stereo partly specified)
Not Active	Not a substrate		CCOC(=O)CNC(=O)[C@H]1N(C(=O)[C@H](Cc2ccccc2)NC(=O)CNC(=O)OCc2ccccc2)CCC12CC2
Not Active	Not a substrate		CCOC(=O)CNC(=O)[C@@H]1CC(C)CN1C(=O)[C@H](Cc1ccccc1)NC(=O)CNC(=O)OCc1ccccc1 (stereo partly specified)
		Substrate	CCOC(=O)CNC(=O)[C@@H]1C(F)CCN1C(=O)[C@H](Cc1ccccc1)NC(=O)CNC(=O)OCc1ccccc1 (stereo partly specified)
